Calls of active or inactive are those of the source. For most assays here, no stated cut-off is given here; in the data, actives have a measured AC50 and inactives only a lower limit.
Assays:
Protein RecA = biological target: T1, Protein RecA (Mycobacterium tuberculosis, UniProt P9WHJ3); assay: Fluorescence Cell-Free Homogeneous Dose Retest to Identify Inhibitors of RecA-Intein Splicing Activity. [Related pubchem assays (depositor defined):AID2097, AID2223, AID489010, AID492950]; type: functional
T1 sequence (P9WHJ3 whole entry): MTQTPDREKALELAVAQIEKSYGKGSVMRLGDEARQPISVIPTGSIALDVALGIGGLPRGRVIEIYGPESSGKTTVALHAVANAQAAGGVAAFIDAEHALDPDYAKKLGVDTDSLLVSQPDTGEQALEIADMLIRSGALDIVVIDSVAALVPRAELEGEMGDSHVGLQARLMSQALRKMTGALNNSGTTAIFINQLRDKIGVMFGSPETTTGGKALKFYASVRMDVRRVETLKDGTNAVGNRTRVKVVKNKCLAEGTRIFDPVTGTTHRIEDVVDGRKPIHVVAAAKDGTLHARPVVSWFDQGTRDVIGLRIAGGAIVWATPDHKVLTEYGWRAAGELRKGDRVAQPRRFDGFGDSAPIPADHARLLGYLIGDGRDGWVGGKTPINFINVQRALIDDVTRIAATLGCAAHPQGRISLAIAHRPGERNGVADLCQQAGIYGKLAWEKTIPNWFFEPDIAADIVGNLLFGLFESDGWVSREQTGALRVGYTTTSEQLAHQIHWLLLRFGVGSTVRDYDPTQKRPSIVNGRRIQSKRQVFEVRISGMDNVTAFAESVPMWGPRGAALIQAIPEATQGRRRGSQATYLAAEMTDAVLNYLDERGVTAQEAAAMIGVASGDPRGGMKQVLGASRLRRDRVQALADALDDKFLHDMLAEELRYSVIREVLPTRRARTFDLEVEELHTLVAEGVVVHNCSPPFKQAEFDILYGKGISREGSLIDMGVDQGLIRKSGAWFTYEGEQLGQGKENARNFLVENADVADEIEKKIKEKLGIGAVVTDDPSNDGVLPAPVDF

[1] = biological target: T2, Replicative DNA helicase DnaB (Mycobacterium tuberculosis, UniProt P9WMR3); assay: DnaB intein splicing inhibitors, dose response, biochemical, cell-free fluorescence (AID 449749); type: functional
T2 sequence (P9WMR3 whole entry): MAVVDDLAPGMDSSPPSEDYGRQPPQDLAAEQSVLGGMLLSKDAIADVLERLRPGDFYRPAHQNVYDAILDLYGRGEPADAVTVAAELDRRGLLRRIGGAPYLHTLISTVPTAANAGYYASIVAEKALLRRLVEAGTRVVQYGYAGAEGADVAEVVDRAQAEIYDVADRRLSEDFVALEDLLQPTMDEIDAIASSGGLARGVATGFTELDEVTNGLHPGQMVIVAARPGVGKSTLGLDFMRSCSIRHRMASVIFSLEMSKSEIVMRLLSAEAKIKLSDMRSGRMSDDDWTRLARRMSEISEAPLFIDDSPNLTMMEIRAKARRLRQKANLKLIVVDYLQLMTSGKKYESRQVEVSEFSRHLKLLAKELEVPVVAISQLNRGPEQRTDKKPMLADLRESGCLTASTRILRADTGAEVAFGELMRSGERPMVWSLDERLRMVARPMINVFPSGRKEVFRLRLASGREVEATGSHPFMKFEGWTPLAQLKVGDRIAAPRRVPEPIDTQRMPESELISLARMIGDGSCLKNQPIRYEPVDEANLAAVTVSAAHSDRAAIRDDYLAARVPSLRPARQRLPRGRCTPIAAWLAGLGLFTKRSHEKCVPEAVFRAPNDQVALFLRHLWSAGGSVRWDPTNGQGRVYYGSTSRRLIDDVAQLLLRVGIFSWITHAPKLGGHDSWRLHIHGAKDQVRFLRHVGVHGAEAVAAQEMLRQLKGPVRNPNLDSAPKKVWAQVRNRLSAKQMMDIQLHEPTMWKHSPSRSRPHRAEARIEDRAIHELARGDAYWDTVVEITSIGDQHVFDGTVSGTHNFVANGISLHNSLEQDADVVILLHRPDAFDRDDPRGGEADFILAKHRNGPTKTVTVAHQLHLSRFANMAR

[2] = biological target: T3, Histone-lysine N-methyltransferase NSD2 (Homo sapiens, UniProt O96028); type: biochemical
T3 sequence (O96028 whole entry): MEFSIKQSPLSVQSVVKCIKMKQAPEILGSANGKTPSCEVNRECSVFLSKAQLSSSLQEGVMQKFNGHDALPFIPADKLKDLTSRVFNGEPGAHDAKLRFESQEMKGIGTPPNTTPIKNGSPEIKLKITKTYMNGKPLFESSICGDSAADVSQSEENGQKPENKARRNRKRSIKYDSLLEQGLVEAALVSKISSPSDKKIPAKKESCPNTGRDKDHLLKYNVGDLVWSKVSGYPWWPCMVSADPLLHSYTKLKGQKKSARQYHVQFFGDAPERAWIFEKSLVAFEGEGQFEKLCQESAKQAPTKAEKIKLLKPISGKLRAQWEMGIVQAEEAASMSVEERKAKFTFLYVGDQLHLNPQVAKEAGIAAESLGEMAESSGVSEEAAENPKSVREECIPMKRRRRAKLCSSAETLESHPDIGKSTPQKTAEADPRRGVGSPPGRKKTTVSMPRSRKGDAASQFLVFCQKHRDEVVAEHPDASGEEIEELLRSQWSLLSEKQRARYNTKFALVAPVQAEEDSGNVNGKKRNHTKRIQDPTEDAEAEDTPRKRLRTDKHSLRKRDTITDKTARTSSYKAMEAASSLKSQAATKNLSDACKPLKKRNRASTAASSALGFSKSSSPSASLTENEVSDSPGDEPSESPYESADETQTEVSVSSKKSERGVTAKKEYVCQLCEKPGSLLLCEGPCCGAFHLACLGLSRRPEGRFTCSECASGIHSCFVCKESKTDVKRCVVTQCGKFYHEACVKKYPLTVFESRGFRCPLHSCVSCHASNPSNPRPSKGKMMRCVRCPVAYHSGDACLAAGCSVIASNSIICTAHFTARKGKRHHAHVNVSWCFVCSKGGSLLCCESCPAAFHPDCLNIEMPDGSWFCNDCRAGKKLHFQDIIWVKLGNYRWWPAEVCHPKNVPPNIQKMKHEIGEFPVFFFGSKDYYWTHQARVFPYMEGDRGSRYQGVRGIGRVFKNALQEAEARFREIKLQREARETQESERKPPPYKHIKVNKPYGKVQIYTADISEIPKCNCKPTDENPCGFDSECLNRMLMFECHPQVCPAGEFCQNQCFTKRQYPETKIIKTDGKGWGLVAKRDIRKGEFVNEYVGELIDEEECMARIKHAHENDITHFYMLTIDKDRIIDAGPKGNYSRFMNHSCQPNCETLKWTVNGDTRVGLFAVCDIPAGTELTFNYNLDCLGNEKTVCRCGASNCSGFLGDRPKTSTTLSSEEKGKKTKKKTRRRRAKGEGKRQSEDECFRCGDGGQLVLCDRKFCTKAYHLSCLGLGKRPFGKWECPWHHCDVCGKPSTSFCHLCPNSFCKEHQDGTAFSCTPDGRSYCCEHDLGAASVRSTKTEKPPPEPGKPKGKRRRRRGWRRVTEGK

| Structure (SMILES) | EC50 (Protein RecA) | AC50 [1] | AC50 [2] |
| --- | --- | --- | --- |
| N#Cc1c(N2CCCCC2)nc(N)c2c(N)nc(SCC(=O)O)cc12 | 9.14 µM (active) | 24.9 µM (active) | – |
| CC1(C)Cc2ccccc2C2=NNC(=O)C2=N1 | 1.17 µM (active) | 0.343 µM (active) | 16.4 µM (active) |
| CCc1ccc(S(=O)(=O)Nc2cc(SCC(=O)O)c(O)c3ccccc23)cc1 | 0.217 µM (active) | 0.77 µM (active) | 4.83 µM (active) |
| O=[N+]([O-])c1ccc(Sc2cccc[n+]2[O-])c2nonc12 | 4.93 µM (active) | 5.25 µM (active) | 5.12 µM (active) |
| Oc1c(Cl)cc(Cl)c(Cl)c1Cc1c(O)c(Cl)cc(Cl)c1Cl [HEXACHLOROPHENE] | 7.27 µM (active) | 1.81 µM (active) | – |
